Reference: patent publication US20050107394A1, “Novel use of selective pde5 inhibitors” (priority 2001, published 2005)
Entries after “also recorded” stand apart in the source; their conditions may differ.

Legend:
[1] = tested on: patients with chronic thromboembolism and displaying secondary PHT; test: Arterial oxygen partial pressure in patients with chronic thromboembolism; assay type: in vivo, human; details: 7 patients; for effect on arterial oxygen partial pressure: FIG. 4; for arterial oxygen partial pressure (PaO2), improvement: NO 20 ppm inhaled, sildenafil 50 mg oral
Procedure: FIG. 4: Result of measurement of the arterial oxygen partial pressure (PaO2) on 7 patients with chronic thromboembolism and displaying secondary PHT (pulmonary hypertension). The arterial oxygen partial pressure was improved by NO (inhaled) [20 ppm] and sildenafil (oral) [50 mg] by respectively 1.8% and 7.6%, whereas the oxygen saturation fell by 13% after administration of PGI (intravenous). In the same experiment, the vascular resistance was measured and determined as delta PVR by a right cardiac catheterization. The vascular resistance was reduced respectively by 25%, 19% and 21% after administration of PGI (intravenous) [6 ng/kg bodyweight/min], NO (inhaled) [20 ppm] and sildenafil (oral) [50 mg].
(§1) 7 patients with CTEPH underwent a Swan-Ganz catheter investigation with measurement of the ventilation/perfusion (V/Q) distribution (using the multiple inert gas elimination technique (MIGET)). After determination of the baseline parameters (haemodynamics and gas exchange), all the patients initially inhaled 20 ppm NO, followed by a second baseline period (10-15 min), and then PGI was infused (6 ng/kg bodyweight/min), again followed by a second baseline period (10-15 min) and then an oral dose of 50 mg of sildenafil was given (120-150 min follow-up). 3 of the 7 patients were controlled by continuous nasal oxygen therapy in order to reach an arterial oxygenation of >88%. The following parameters were measured under baseline conditions: mean pulmonary arterial pressure (mPAP) 52.1 +/−3.3 mmHg, cardiac index (CI) 2.2+/−0.1 |* min^−1*m^−2, pulmonary vascular resistance index (PVRI) 1703.8+/−129.5 dyn*s*cm^−6*m^2, arterial pO2 72.5+/−3.3 mmHg and mixed venous oxygen saturation (SvO2) of 63.4+/−2.2%.

[2] = tested on: bleomycin-induced pulmonary fibrosis in rabbits; test: Oxygenation index (PaO2/FiO2) in bleomycin-induced pulmonary fibrosis; assay type: in vivo, rabbit; details: for effect on O2 saturation: FIG. 2; for oxygenation index (PaO2/FiO2), raised compared with the control (190): NO 20 ppm inhaled, sildenafil 1 mg/kg oral
Procedure: FIG. 2: Result of determination of the oxygenation index (arterial oxygen partial pressure/fraction of inspired oxygen [PaO2/FiO2]) measured in the model of bleomycin-induced pulmonary fibrosis in rabbits. Whereas systemic PGI (6 ng/kg body weight/min] (PGI, prostacyclin) reduces the oxygenation index by 60% compared with the control (190), the oxygenation index was markedly raised by inhaled NO [20 ppm] by 28% and sildenafil (oral) [1 mg/kg body weight] by 31%.
Healthy rabbits of both sexes were pretreated orally with a gyrase inhibitor (Baytril®) for one week. Ten animals pretreated in this way were not treated with bleomyin and served as control, and, on the day of exposure, the others were anaesthetized with a Ketanest®/Rompun® mixture, intubated intratracheally and ventilated mechanically. An ultrasonic nebulizer (MMAD 2.5 μm) was used to administer by inhalation exactly 1.8 U/kg of bodyweight of bleomycin under volume-controlled ventilation. After 4, 8, 16, 24, 32 and 64 days (in each case n≧5) post exposure, the animals were again anaesthetized, provided with an arterial access (right carotid artery) and underwent bodyweight-adapted ventilation via a tracheostomy in a volume-controlled method. The arterial pO2 and pCO2, and the static compliance of the lung were measured (by recording the intrathoracic pressure and with slow inflation/deflation manoeuvres). Subsequently, the lungs of these animals were dissected and perfused with a Krebs Hensefeit buffer. Under these conditions, the capillary filtraton coefficient (cfc) was then found from the weight gain of the organ after increasing the pulmonary venous pressure by 7.5 mmHg, and the peak ventilation pressure was found. After completion of these measurements, the left main bronchus was ligated in the end-inspiratory position and a bronchoalveolar lavage (BAL) was performed on the right lung. Subsequently, the large vessels and airways of the right lung were dissected off and the organ was homogenized. The left lung was perfusion-fixed with 4% formalin solution while maintaining a pressure gradient of 25 cm H2O and was then stored in 4% formalin until embedded. Firstly, the cells were removed from the BAL, counted and differentiated via a Papenheim stain. The cell-free BAL supernatant was then aliquoted and submitted to further analysis of the surfactant and coagulation properties and a determination of the matrix metallo proteinases (MMPs) and their inhibitors (TIMPs) and of soluble collagen. Bronchoalveolar deposition of 1.8 U/kg of bodyweight of bleomycin led initially to development of an ARDS-like event, with a massive restriction of gas exchange (paO2/FiO2 of >500 mmHg in the controls reduced to ˜110 mmHg on day 4), ground-glass opacities over all sections of the lung in the HRCT and an increase of about 5-fold in the capillary filtration coefficient (cfc). In the later phase of bleomycin-induced lung damage there was then development of pronounced fibrosis which could be confirmed on the basis of the increase in soluble collagen in the BAL and the hydroxyproline in the tissue, on the basis of the histological specimens and of the HRCT findings. […] Consistent with this, a pronounced increase in the extracellular matrix and an alveolar and also interstitial ingress of fibroblasts was observable in the histological sections. Besides the homogeneously distributed zones of fibrosis there were also thin hyperdistended sections of lung with a honeycomb appearance.
Systemically administered PGI (vasodilatator) increased the shunting to about 30%. […] The data for O2 saturation (FIG. 2) correspond directly.

[3] = tested on: patients with ILD displaying secondary PHT; test: Pulmonary vascular resistance in patients with ILD; assay type: in vivo, human; details: 7 patients with ILD
Procedure: as §1, with “ILD” for “CTEPH”, “5” for “3”, “39.6+/−2.8 mmHg and” for “52.1 +/−3.3 mmHg, cardiac index (CI) 2.2+/−0.1 |* min^−1*m^−2,”, “1255+/−215 dyn*s*cm−5*m^2.” for “1703.8+/−129.5 dyn*s*cm^−6*m^2, arterial pO2 72.5+/−3.3 mmHg and mixed venous oxygen saturation (SvO2) of 63.4+/−2.2%.”
By contrast, PGI (intravenous) increased the lung areas from 7% to almost 20% and thus caused a deterioration in matching (FIG. 5). Corresponding to the matching, PGI reduced the O2 saturation by 12%, whereas NO brought about an improvement of 5% and sildenafil one of 15% (FIG. 6).

[4] = tested on: patients with chronic thromboembolism and displaying secondary PHT; test: Low V/Q perfusion by MIGET in patients with chronic thromboembolism; assay type: in vivo, human; details: for effect on low-V/Q perfusion / ventilation/perfusion distribution (words): 7 patients with CTEPH; for low V/Q perfusion (MIGET), level reached: 7 patients, control 3.25%, PGI i.v. 6 ng/kg/min, NO 20 ppm inhaled, sildenafil 50 mg oral
Procedure: FIG. 3: Result of determination of the low V/Q perfusion measured by the inert gas exchange method (MIGET) [Wagner et al. J Appl Physiol. 1974;36:588-99] from 7 patients with chronic thromboembolism and displaying secondary PHT (pulmonary hypertension). Compared with the control group (3.25%), the shunting was increased with PGI (i.v.) [6 ng/kg bodyweight/min] to 19%, with NO (inhaled) [20 ppm] to 5.3% and with sildenafil (oral) [50 mg] to 5.3%.
as §1

Structure (SMILES)	arterial oxygen partial pressure / oxygen saturation, decrease ([1]; PGI intravenous 6 ng/kg/min) [%]	effect on O2 saturation [2]	oxygenation index (PaO2/FiO2), reduction compared with the control (190) ([2]; PGI 6 ng/kg/min systemic) [%]	effect on pulmonary vascular resistance [3]	pulmonary vascular resistance (PVR), reduction [3]	effect on low-V/Q perfusion / ventilation/perfusion distribution (words) [4]	low V/Q perfusion (MIGET), level reached [4] [%]	effect on arterial oxygen partial pressure [1]	arterial oxygen partial pressure (PaO2), improvement [1] [%]	oxygenation index (PaO2/FiO2), raised compared with the control (190) [2] [%]	effect on low-V/Q perfusion / ventilation/perfusion distribution (words) ([4]; listed as Sildenafil)
CCCCC[C@H](O)/C=C/[C@@H]1[C@H]2C/C(=C/CCCC(=O)O)O[C@H]2C[C@H]1O [PGI, prostacyclin]	13	reduced O2 saturation	60	marked reduction	about 25%	greatly increased	19	–	–	–	–
CCCc1nn(C)c2c(=O)[nH]c(-c3cc(S(=O)(=O)N4CCN(C)CC4)ccc3OCC)nc12 [sildenafil, 5-[2-ethoxy-5-(4-methyl-1-piperazinyl-sulphonyl)phenyl]-1-methyl-3-n-propyl-1,6-dihydro-7H-pyrazolo[4,3-d]pyrimidin-7-one]	–	marked increases in O2 saturation	–	marked reduction	about 25%	virtually unchanged	5.3	increased	7.6	31	same effect as NO (inhaled)
[N]=O [NO, nitric oxide]	–	marked increases in O2 saturation	–	marked reduction	about 25%	virtually unchanged; also recorded: increased slightly	5.3	not changed	1.8	28	–
